Source: paper PMC8545135, “Discovery of Bacterial Fimbria–Glycan Interactions Using Whole-Cell Recombinant Escherichia coli Expression” (mBio, 2021)

Tests used:
[1] = target: T1, K88 (E. coli); F4ac (K88ac) fimbriae, MS428(pK88-AC) (Escherichia coli, UniProt P14190); test: whole-cell SPR, Biacore T200, C1 chip, single-cycle kinetics; assay type: cell-based; conditions: fimbriae on immobilized whole cells; MS428 reference cell
T1 construct: gene faeG; native F4ac fimbriae on whole cells of fim-negative E. coli MS428, plasmid pK88-AC with F4ac gene cluster
Source text: whole-cell SPR, Biacore T200, C1 chip, single-cycle kinetics on K88 (E. coli); F4ac (K88ac) fimbriae, MS428(pK88-AC)

[2] = target: T2, FimH^LD (purified FimH lectin-binding domain) (Escherichia coli, UniProt P08191); test: SPR, CM5 chip, immobilized protein; conditions: glycans 1.6 nM to 1 μM
T2 construct: purified as previously described
Source text: SPR, CM5 chip, immobilized protein on FimH^LD (purified FimH lectin-binding domain)

[3] = target: T3, FimH (E. coli); type 1 fimbriae, MS428(pPKL4) (Escherichia coli, UniProt P08191); test: whole-cell SPR, Biacore T200, C1 chip, single-cycle kinetics; assay type: cell-based; conditions: fimbriae on immobilized whole cells; MS428 reference cell
T3 construct: with Type-1 fimbrial protein, A chain; Protein FimF; Protein FimG
Source text: whole-cell SPR, Biacore T200, C1 chip, single-cycle kinetics on FimH (E. coli); type 1 fimbriae, MS428(pPKL4)

T2 sequence (P08191 22-179): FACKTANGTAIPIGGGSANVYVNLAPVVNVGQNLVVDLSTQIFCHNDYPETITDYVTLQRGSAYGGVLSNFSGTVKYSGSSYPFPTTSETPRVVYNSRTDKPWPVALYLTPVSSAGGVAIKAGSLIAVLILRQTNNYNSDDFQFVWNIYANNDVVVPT
T3 sequence (P08191 22-300): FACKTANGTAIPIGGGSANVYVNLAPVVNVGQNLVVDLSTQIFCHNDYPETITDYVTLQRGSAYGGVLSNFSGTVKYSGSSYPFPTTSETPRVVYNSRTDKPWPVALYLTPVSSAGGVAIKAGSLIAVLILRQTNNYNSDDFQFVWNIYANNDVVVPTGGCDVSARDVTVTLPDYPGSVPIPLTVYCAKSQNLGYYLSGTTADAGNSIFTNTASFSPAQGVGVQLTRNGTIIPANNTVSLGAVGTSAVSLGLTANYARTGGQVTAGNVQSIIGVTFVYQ
T3 sequence (P04128 24-182, further chain): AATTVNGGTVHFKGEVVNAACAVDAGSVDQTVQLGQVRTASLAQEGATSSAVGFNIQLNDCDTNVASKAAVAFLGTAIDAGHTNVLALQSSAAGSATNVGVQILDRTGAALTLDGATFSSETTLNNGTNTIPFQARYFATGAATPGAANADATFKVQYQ
T1 sequence (P14190 22-283 limits assumed): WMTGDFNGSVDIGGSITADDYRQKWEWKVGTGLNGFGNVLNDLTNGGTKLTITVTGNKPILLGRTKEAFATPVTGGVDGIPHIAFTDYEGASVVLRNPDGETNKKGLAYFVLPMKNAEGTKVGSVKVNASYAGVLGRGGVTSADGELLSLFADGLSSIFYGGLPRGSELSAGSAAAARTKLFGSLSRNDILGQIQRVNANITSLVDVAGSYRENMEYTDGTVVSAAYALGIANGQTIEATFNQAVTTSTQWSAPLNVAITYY

| Molecule | Disassociation constant^a: / K88 (E. coli) [1] [µM] | Disassociation constant^a: / FimH (protein) [2] [nM] | Disassociation constant^a: / FimH (E. coli) [3] [nM] |
| --- | --- | --- | --- |
| CC(=O)N[C@H]1[C@H](O[C@@H]2[C@H](O)[C@@H](O)[C@H](O[C@H]3[C@H](O)[C@@H](O)C(O)O[C@@H]3CO)O[C@@H]2CO)O[C@H](CO)[C@H](O)[C@@H]1O[C@@H]1O[C@H](CO)[C@H](O)[C@H](O)[C@H]1O (stereo partly drawn) [1F, AsialoGM1] | 11.02 ± 3.9 | – | – |
| Man5NAc | – | 25.9 ± 8.9 | 27.4 ± 16.8 |
| OC[C@H]1O[C@H](O[C@H]2[C@@H](O)[C@@H](CO)OC(O)[C@@H]2O)[C@H](O)[C@@H](O)[C@H]1O (stereo partly drawn) [Galα1-3Gal] | 0.1603 ± 0.03 | – | – |
| OCC1OC(OCC2OC(OCC3OC(O)C(O)C(OC4OC(CO)C(O)C(O)C4O)C3O)C(O)C(OC3OC(CO)C(O)C(O)C3O)C2O)C(O)C(O)C1O (stereo not drawn) [Man5] | – | 607 ± 142 | 2000 ± 842 |
